# Data from US7655395B2, “Isolation and use of ryanodine receptors” (E.I. du Pont de Nemours and Company, priority 2002, dated 2010).
# Test system: control cells without DNA / wild-type Sf9 cells
# Experiment: Calcium response in control Sf9 cells (without DNA, lipid only, non-transfected, wild type)
# Type: cell-based, Spodoptera frugiperda
# Source text: Several drops of a suspension of recombinant Spodoptera frugiperda cell line, Sf9, transiently expressing insect ryanodine receptors were placed on a poly-L-lysine-coated coverslip and allowed to attach. Cells were then rinsed in physiological saline having the following composition (mM): NaCl 130; KCl 5.4; MgCl2 1.2; CaCl2 1.0; NaHCO3 4.2; NaH2P04 7.3; Glucose 10; Sucrose 63; MES 20; pH 6.3. Cells were then bathed in physiological saline containing the calcium sensitive fluoroprobe, Fura-2 AM (2 μM), and Pluronic F127 (0.002%) for 30 min. Cells were rinsed in standard physiological saline for at least 15 min prior to testing. Testing was conducted in standard physiological saline, as the cell lines are devoid of functional voltage-gated calcium channels.
# Imaging studies were conducted using a Nikon Diaphot microscope with a 40× oil immersion objective (NA 1.3) Image acquisition and processing was performed using the MetaFluor™ imaging system from Universal Imaging Corporation (West Chester, Pa.) Calcium calibration was carried out using the Grynkiewicz equation with a dissociation constant (Kd) of 145 nM for Fura-2 (Grynkiewicz et al., 1985). Cell-attached coverslips were placed in a sealed chamber with physiological saline continuously perfused across the cells using a peristaltic pump. Test compounds solubilized in physiological saline were applied by switching the perfusate source.
# For studies involving the stable recombinant Spodoptera frugiperda cell line, Sf9, (other cell lines could also be used such as Sf21, S2, etc) expressing an insect ryanodine receptor from Drosophila melanogaster, or Heliothis virescens (alternatively receptors from other species such as Myzus persicae, Peregrinus maidis, Aphis gossypii, etc) were grown in T75 (or other appropriate sized) flasks in supplemented Grace's insect medium. Cells were maintained in an incubator at 22° C. until testing. Cells were suspension-loaded with the calcium sensitive fluoroprobe, Fura-2 AM (1-2 μM) and Pluronic F127 (0.002%) in culture medium for 30 minutes under agitation. Cells were then centrifuged and the pellet resuspended in physiological saline having the following composition (mM): NaCl 130; KCl 5.4; MgCl2 1.2; CaCl2 1.0; NaHCO3 4.2; NaH2P04 7.3; Glucose 10; Sucrose 63; MES 20; pH 6.3 at approximately 150,000-200,000 cells per well (96-well plate). After a 30 minute equilibration period the cell plate was tested using a Molecular Devices' FlexStation™ system with dual wavelength excitation (340 and 380 nm) and fluorescence emission measured at 510 nm. Test and control samples were added using integrated fluidics and the intracellular calcium monitored over a 2 minute period.
smiles,measurement,setting,value
"Cn1c(=O)c2c(ncn2C)n(C)c1=O [Caffeine, reference compound]",calcium response in control cells without DNA,caffeine 10 mM,No significant calcium responses
same,"caffeine dose response, calcium mobilization","wild-type Sf9 cells (Sf9-WT), FlexStation, FIG. 6",insensitive
